One experiment deals with T1, Top1 (Homo sapiens, UniProt P11387).
T1 sequence (P11387 1-765): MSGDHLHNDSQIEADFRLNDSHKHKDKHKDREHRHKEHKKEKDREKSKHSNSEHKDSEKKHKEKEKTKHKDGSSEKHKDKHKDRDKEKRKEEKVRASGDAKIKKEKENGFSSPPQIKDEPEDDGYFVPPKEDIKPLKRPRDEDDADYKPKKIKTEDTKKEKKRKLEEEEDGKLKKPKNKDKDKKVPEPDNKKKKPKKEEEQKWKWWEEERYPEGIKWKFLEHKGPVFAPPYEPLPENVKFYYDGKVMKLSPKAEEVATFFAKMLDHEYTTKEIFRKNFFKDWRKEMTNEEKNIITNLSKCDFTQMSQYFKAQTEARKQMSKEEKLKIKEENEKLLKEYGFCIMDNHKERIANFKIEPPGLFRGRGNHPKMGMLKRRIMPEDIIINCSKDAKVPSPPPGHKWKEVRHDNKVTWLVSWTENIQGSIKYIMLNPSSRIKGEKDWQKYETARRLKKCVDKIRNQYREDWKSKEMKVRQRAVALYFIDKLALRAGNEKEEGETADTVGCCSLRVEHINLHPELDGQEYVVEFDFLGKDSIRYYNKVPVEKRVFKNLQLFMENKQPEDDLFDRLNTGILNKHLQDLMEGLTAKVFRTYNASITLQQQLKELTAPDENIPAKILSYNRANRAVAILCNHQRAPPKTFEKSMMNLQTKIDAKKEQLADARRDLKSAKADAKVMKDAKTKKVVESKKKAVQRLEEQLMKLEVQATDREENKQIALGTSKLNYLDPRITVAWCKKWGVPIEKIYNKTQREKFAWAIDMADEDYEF
Description: Top1 DNA relaxation assay (pBR322). The class given is biochemical. The settings on record: supercoiled pBR322, FIG. 3b. An excerpt: (§1) FIG. 3. DNM derivatives are dual Top1/Top2 inhibitors with different modes of inhibition. (a) Inhibition of decatenating ability of Top2α with increasing concentrations of ETP, 6DNM-NH3, 6DNM-Pyr, and Ph-6DNM-NH3. K, kinetoplast DNA; OC, open circular; R, relaxed. (b) Inhibition of relaxing ability of Top1 with increasing concentrations of CPT, 6DNM-NH3, 6DNM-Pyr, and Ph-6DNM-NH3. R, relaxed; S, supercoiled. (c) Detection of Top2a-DNA using the ICE Assay. Genomic DNA ([…]) of H460 cells treated with drugs (50 μM, 30 min) was applied to nitrocellulose membrane and immunoblotted for Top2a. (d) Detection of Top1-DNA adducts using ICE Assay. Same procedure as (c) using 1 μg of DNA. (e) Inhibition of ETP-induced poisoning of Top2a. H460 cells treated with indicated concentrations of inhibitor for 30 min prior to treatment with ETP (50 μM). Detection of Top2α as in (c).
To further investigate any mechanistic differences between these structurally related DNM analogues they were also evaluated against the other clinically-targeted mammalian topoisomerase, Top1, using a DNA relaxation assay in which purified Top1 relaxes supercoiled pBR322 and the two forms are separated by agarose gel electrophoresis.

The target in another experiment is T2, Top1cc (Homo sapiens, UniProt P11387).
T2 construct: endogenous in cells; host or cells: H460
T2 sequence (P11387 2-765 limits assumed): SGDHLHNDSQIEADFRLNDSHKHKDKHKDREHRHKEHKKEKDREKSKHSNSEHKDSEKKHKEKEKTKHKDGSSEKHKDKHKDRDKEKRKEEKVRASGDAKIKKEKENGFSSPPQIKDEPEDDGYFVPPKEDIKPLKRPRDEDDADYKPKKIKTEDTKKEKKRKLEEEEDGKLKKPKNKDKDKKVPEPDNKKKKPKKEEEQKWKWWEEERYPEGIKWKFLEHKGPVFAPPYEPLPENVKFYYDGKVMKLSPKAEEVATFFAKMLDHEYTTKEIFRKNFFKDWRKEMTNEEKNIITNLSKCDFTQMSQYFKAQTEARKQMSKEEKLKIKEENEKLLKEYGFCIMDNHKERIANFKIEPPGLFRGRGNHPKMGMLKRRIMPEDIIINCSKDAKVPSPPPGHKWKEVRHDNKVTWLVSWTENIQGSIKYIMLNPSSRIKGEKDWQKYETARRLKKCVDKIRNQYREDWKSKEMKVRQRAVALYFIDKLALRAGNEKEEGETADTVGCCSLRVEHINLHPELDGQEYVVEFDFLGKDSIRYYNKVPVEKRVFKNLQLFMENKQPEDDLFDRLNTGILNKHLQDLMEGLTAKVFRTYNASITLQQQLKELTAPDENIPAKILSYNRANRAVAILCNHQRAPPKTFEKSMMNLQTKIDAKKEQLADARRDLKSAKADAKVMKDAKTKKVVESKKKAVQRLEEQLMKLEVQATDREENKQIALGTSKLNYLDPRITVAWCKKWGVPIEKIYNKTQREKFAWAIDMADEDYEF
The experiment is described as follows: ICE assay for Top1-DNA adducts in H460 cells. The class given is cell-based.
Excerpt: as §1
(§2) The in vivo complex of enzyme (ICE) assay can be used to distinguish poisons from catalytic inhibitors. The ICE assay consists of isolating the genomic DNA of cells treated with small molecules in a manner the preserves covalent DNA-protein complexes and applying it to nitrocellulose membranes. Because topoisomerase poisons stabilize the cleavage complexes, DNA-protein complexes can be detected by immunoblotting for specific topoisomerases, whereas catalytic inhibitors produce no such result. To determine if DNM derivatives are acting as poisons or catalytic inhibitors, H460 human lung cells were exposed to 50 μM of the Top2 poison ETP, Ph-6DNM-NH3, 6DNM-NH3, and 6DNM-Pyr and assessed for their ability to stabilize Top2cc. […] In a similar fashion, next investigated was the mode of Top1 inhibition using the ICE assay (FIG. 3b).

Another experiment addresses Top2α (Homo sapiens, UniProt P11388). Description: Top2α kDNA decatenation assay. The class given is biochemical. The settings on record: gel electrophoresis, FIG. 3a.
Excerpt: as §1
FIG. 9. Mechanism of action studies: Topoisomerases form transient covalent complexes with DNA to modify DNA topology. Ph6DNM-NH3 and 6DNM-NH3 inhibit bacterial DNA gyrase and human topoisomerase II in vitro.
The ability of Ph-6DNM-NH3, 6DNM-NH3, and 6DNM-Pyr to inhibit Top2α was assessed using a decatenation assay. In this assay, Top2α is incubated with kinetoplast DNA (kDNA), a large network of catenated minicircles and maxicircles of DNA. As Top2α decatenates the kDNA, it releases supercoiled and relaxed DNA minicircles that are easily separated from the kDNA by gel electrophoresis.

The subject of a further experiment is E. coli. Description: Antibacterial MIC, microbroth dilution, E. coli. The class given is cell-based. The protocol: (§3) To investigate this possibility, the antibacterial effects of the DNM derivatives was assessed against strains of E. coli, S. aureus, and MRSA using the microbroth dilution method (Table 2).
In the next experiment the target is T3, Top2cc (Homo sapiens, UniProt P11388).
T3 construct: endogenous in cells; host or cells: H460
T3 sequence (P11388 whole entry): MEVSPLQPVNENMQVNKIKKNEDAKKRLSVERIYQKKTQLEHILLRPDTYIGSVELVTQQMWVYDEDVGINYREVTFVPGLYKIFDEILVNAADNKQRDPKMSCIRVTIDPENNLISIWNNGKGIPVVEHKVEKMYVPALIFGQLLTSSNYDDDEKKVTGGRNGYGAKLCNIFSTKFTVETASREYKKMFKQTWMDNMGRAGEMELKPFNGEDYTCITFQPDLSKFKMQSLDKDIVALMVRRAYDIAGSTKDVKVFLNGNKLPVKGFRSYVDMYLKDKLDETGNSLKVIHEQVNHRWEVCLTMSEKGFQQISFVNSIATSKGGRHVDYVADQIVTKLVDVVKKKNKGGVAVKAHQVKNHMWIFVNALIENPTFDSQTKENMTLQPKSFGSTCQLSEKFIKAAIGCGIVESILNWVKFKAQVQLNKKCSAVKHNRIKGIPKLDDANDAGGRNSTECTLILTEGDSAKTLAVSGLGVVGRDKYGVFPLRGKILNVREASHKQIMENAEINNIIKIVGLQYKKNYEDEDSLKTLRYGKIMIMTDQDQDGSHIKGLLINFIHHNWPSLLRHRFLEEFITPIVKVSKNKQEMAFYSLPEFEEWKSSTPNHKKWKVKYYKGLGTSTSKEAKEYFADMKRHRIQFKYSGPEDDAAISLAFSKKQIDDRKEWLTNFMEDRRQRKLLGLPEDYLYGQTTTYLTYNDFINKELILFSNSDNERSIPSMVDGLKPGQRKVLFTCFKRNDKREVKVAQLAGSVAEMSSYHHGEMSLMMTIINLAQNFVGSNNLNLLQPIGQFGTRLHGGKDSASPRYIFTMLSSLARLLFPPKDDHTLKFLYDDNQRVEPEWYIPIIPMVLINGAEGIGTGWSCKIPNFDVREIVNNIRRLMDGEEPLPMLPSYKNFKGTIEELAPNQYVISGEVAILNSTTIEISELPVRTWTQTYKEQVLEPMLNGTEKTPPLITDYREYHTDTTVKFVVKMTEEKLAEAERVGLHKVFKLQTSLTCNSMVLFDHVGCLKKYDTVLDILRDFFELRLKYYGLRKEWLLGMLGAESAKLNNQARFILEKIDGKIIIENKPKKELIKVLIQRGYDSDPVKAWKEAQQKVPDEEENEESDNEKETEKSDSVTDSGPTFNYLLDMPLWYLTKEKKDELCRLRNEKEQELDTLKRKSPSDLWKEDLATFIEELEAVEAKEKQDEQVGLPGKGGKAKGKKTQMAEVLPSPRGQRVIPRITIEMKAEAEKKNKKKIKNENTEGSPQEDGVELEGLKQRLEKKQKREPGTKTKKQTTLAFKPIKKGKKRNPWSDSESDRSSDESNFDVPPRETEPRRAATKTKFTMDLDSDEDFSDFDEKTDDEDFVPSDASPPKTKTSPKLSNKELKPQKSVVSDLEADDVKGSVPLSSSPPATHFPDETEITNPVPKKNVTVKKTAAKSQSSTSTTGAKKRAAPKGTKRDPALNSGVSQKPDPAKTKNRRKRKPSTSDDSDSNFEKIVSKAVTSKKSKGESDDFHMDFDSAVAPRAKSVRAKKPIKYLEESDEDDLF
Description: ICE assay for Top2α-DNA complexes in H460 cells. The class given is cell-based.
Excerpt: as §1, §2

A further experiment deals with E. coli TopoIV (Escherichia coli, UniProt P0AFI2+P20083). Description: E. coli TopoIV decatenation assay. The class given is biochemical. An excerpt: (§4) FIG. 8. In vitro inhibitory activity of 6DNM-NH3, Ph-6DNM-NH3 against E. coli DNA gyrase and TopoIV.
E. coli TopoIV, sequence (P0AFI2 whole entry): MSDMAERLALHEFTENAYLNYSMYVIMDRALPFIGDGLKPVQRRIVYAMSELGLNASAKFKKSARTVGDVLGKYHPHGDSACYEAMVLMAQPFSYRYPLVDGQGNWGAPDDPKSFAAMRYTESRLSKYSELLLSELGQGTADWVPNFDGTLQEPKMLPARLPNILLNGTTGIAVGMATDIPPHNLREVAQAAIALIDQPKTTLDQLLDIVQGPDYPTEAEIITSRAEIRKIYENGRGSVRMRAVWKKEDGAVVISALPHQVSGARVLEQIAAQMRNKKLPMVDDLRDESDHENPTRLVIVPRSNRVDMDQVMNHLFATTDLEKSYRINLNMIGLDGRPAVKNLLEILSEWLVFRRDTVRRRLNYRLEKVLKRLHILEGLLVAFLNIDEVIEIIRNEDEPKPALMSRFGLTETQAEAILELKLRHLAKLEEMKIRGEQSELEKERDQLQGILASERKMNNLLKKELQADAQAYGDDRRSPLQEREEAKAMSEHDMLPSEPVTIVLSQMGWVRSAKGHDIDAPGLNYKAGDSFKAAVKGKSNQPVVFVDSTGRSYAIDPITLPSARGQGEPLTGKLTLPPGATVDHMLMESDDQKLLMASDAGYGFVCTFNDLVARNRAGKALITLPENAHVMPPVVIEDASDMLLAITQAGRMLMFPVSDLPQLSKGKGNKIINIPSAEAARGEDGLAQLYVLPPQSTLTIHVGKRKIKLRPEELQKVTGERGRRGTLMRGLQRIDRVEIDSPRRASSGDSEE
E. coli TopoIV, sequence (P20083 whole entry): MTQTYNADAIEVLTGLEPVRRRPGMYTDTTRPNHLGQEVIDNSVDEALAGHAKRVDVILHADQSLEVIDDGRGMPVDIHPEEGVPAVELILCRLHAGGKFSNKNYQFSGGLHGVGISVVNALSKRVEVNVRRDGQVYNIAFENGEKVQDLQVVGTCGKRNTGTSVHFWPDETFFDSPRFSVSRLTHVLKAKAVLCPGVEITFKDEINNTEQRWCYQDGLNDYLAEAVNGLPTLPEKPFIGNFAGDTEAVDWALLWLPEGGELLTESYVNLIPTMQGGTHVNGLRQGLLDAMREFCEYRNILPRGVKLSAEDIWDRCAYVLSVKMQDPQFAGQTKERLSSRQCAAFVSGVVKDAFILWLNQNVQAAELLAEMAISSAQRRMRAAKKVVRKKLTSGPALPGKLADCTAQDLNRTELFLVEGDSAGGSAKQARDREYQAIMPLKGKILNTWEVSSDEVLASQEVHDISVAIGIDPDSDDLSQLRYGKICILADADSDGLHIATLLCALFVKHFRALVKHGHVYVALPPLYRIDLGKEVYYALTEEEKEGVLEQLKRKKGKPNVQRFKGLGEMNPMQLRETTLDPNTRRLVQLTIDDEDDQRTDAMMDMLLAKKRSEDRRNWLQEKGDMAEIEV
(§5) DNM and its derivatives exert their antibacterial effects through inhibition of the DNA Gyrase.

The subject of experiment [1] is MDA-MB-231 triple negative breast cancer cells. The experiment is described as follows: Antiproliferative SRB assay, MDA-MB-231. The class given is cell-based. Particulars: SRB assay, 72 hour compound exposure, mean ± SEM; read-out: MDA-MB-231 IC50. The protocol:
FIG. 1. […] Cell death measured by SRB assay after 72 hour of compound exposure (n≥3 biological replicates, error bars show SEM). IC50 values given as mean±SEM from ≥3 biological replicates.
To investigate the feasibility of developing a class of antitumor antibiotics based upon the DNM scaffold, the ability of the DNM to exert an antiproliferative effect against MDA-MB-231 breast cancer cells was evaluated.
In general terms: Sulforhodamine B stains cellular protein and so reports cell mass.

Another experiment concerns the target E. coli DNA Gyrase (Escherichia coli, UniProt P0AES4+P0AES6). Description: E. coli DNA Gyrase supercoiling assay. The class given is biochemical.
Excerpt: as §4, §5

In a further experiment the test system is MRSA. The experiment is described as follows: Antibacterial MIC, microbroth dilution, MRSA. The class given is cell-based, S. aureus. The settings on record: Staphylococcus aureus, MRSA; microbroth dilution. Here is the method: as §3
A general note: In broth dilution the organism is exposed to a series of concentrations in liquid medium.

In another experiment the test system is S. aureus. The experiment is described as follows: Antibacterial MIC, microbroth dilution, S. aureus. The class given is cell-based. Here is the method:
as §3

Values after ≈ are worked out from the molar mass of the structure shown.

Top2α, sequence (P11388 whole entry): as the sequence (P11388 whole entry) above
E. coli DNA Gyrase, sequence (P0AES4 whole entry, one chain of several): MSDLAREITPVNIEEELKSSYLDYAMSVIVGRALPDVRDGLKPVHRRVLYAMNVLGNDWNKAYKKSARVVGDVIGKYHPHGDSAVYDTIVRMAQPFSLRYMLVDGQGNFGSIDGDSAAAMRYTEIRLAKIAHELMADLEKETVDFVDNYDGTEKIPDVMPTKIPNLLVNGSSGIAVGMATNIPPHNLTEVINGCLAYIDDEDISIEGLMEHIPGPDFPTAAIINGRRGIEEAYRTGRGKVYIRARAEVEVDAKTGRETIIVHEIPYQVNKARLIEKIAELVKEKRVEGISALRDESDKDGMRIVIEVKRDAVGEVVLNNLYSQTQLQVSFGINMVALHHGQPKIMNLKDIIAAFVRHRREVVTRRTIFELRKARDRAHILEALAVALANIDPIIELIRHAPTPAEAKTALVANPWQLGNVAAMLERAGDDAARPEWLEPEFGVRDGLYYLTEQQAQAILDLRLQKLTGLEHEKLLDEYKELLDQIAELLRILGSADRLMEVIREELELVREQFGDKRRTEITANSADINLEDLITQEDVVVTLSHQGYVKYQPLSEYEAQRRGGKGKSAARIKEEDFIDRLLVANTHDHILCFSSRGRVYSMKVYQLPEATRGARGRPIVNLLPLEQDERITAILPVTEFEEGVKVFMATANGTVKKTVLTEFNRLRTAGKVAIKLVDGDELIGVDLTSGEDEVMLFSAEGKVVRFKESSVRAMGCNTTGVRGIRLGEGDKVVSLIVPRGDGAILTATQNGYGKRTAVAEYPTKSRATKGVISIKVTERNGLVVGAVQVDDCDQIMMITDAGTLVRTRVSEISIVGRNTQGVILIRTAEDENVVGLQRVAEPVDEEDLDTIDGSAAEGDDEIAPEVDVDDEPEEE

Take `Cc1cc(=O)n(C)c2c3c4c(cc12)c(C)cc(=O)n4C(CN)CO3` (stereo not drawn) [Compound 9]: the “Inhibition of Top1 relaxation” value on Top1 is “inhibit relaxation at submicromolar concentrations”. The “Accumulation of Top1cc (ICE assay)” value on Top1cc (H460 cells, 50 μM, 30 min) is “neither 6DNM-NH3 nor 6DNM-Pyr, leads to the accumulation of Top1cc”. Also, the “Mode of topoisomerase inhibition” value on Top1cc (in vitro and cell culture experiments taken together) is reported as “dual Top1/Top2α catalytic inhibitors”. Besides, the “Inhibition of decatenating function of Top2α” value at Top2α is listed as “inhibit the decatenating function of Top2α in a dose-dependent manner”. The “E. coli MIC” value in the experiment on E. coli is 0.5 µg/mL. In addition, the “Accumulation of Top2cc (ICE assay)” value on Top2cc (50 μM) was “only ETP treatment resulted in the accumulation of Top2cc”. For the same compound, the “Effect on ETP-induced Top2cc” value at Top2cc (pre-treatment 30 minutes prior to ETP (50 μM)) is “dose-dependent decrease in ETP-induced Top2cc”. The “Inhibition of purified E. coli TopoIV” value at E. coli TopoIV is recorded as “able to inhibit”. Besides, in experiment [1], the IC50 (as a rule, the concentration that inhibits the measured activity by half) amounted to 220 ± 20 nM. Moreover, the “Inhibition of purified E. coli DNA Gyrase” value at E. coli DNA Gyrase was “able to inhibit”. For the same compound, inhibition of growth in the experiment on MRSA (MIC) required 0.03 µg/mL (≈ 0.0922 µM). In the experiment on S. aureus, the “S. aureus MIC” value worked out at 0.5 µg/mL.

These data come from patent publication US11274106B2, “Topoisomerase inhibitors with antibacterial and anticancer activity” (THE BOARD OF TRUSTEES OF THE UNIVERSITY OF ILLINOIS, priority 2017, dated 2022).
